Measurements published in ChEMBL document CHEMBL1201862, “PubChem BioAssay data set” (2004).
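Growth conditions: 96-well plates. Treatment: test compound, 48 hours, 5 concentrations. Analysis: linear interpolation between bracketing concentrations; unreached endpoints set to highest concentration. GI50 is the concentration that inhibits growth by half.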 Calls of active or inactive are those of the source. Cut-off read from the data, not from the text of the source: active = GI50 up to about 1.1 µM and inactive = higher.

Experiments:
Test in all cases: growth of human tumour cells (NCI), 48 h
DMS-114 = test system: DMS-114
HOP-18 = test system: HOP-18
KM-20L2 = test system: KM-20L2
LXFL 529 = test system: LXFL 529
MDA-MB-435 = test system: MDA-MB-435
T47D = test system: T47D
DLD-1 = test system: DLD-1
M19-MEL = test system: M19-MEL

Compound | GI50 (DMS-114) | GI50 (HOP-18) | GI50 (KM-20L2) | GI50 (LXFL 529) | GI50 (MDA-MB-435) | GI50 (T47D) | GI50 (DLD-1) | GI50 (M19-MEL)
CCOC(=O)C(C(=O)OCC)c1cc(-c2cc3ccccc3o2)oc(=O)c1C#N | 26.7 µM (inactive) | 16 µM (inactive) | 19.3 µM (inactive) | 20.4 µM (inactive) |  |  |  | 
Brc1ccccc1-c1ncc(-c2ccccc2)o1 |  |  |  |  | 23.6 µM (inactive) | 9.29 µM (inactive) |  | 
CCOC(=O)C(OP(=O)(OCC)OCC)C(F)(F)F (stereo unspecified) |  |  |  |  | > 100 µM (inactive) | > 100 µM (inactive) |  | 
COc1cccc2c1C(=O)c1c(O)c3c(c(O)c1C2=O)C[C@@](O)(C(C)=O)C[C@@H]3OC1CC(O)C(O)C(C)O1 (stereo partly specified) |  | 1.39 µM (inactive) | 2.69 µM (inactive) | 2.79 µM (inactive) | 8.95 µM (inactive) | 2.82 µM (inactive) | 1.46 µM (inactive) | 1.6 µM (inactive)
NCc1ccc(O)c(O)c1 |  |  |  |  | > 100 µM (inactive) | > 100 µM (inactive) |  | 
O=C(NC(Cc1ccc(I)cc1)C(=O)O)c1ccc(Br)cc1 (stereo unspecified) | 66.2 µM (inactive) | > 100 µM (inactive) | > 100 µM (inactive) |  |  |  | > 100 µM (inactive) | > 82.2 µM (inactive)
Clc1ccccc1/C=C/c1cscn1 | > 100 µM (inactive) |  |  | > 100 µM (inactive) |  |  | > 100 µM (inactive) | > 100 µM (inactive)
O=C1[C@@H]2C(c3c(Cl)cccc3Cl)=NO[C@@H]2C(=O)N1c1ccc(Cc2ccc(N3C(=O)[C@H]4C(c5c(Cl)cccc5Cl)=NO[C@H]4C3=O)cc2)cc1 | > 100 µM (inactive) | > 100 µM (inactive) | > 100 µM (inactive) | > 100 µM (inactive) |  |  | > 100 µM (inactive) | > 100 µM (inactive)
NC(=O)N/N=C\CC(O)(C(F)(F)Cl)C(F)(F)Cl |  |  |  |  | > 10 µM (inactive) | > 10 µM (inactive) |  | 
Cc1cccc(C(O)c2cccnc2)c1O (stereo unspecified) |  |  |  |  | > 100 µM (inactive) | > 100 µM (inactive) |  | 
CC(C)=CCC(OC(=O)C=C(C)C)c1cc(O)c2c(c1O)C(=O)C=CC2=O (stereo unspecified) | 1.05 µM (active) | 3.52 µM (inactive) | 1.82 µM (inactive) |  |  |  | 0.279 µM (active) | 0.621 µM (active)
O=C(c1ccccc1)C1C(c2ccccc2)N1S(=O)(=O)c1ccccc1 (stereo unspecified) |  |  |  |  | > 100 µM (inactive) | > 100 µM (inactive) |  | 
Nc1nnc2ccc(Cl)cc2[n+]1[O-] |  |  |  |  | 57 µM (inactive) | 44.9 µM (inactive) |  | 
Clc1nc2c(N3CCCC3)nc(N3CCNCC3)nc2[nH]1 |  |  |  |  | 18.7 µM (inactive) | 16.9 µM (inactive) |  | 
O=c1c(-c2ccccc2)c(SCCN2CCCCCC2)n(-c2ccccc2)c(=S)n1-c1ccccc1 |  |  |  |  | 33 µM (inactive) |  |  | 
COc1cc(/N=N\c2ccc(OC)c(S(=O)(=O)O)c2)c(C)cc1/N=N\c1ccc(/C=C/c2ccc(/N=[N+](/[O-])c3ccc(/C=C/c4ccc(/N=N/c5cc(C)c(/N=N\c6ccc(OC)c(S(=O)(=O)O)c6)cc5OC)cc4S(=O)(=O)O)c(S(=O)(=O)O)c3)cc2S(=O)(=O)O)c(S(=O)(=O)O)c1 | > 100 µM (inactive) | > 100 µM (inactive) | 95.1 µM (inactive) |  |  |  | > 100 µM (inactive) | > 100 µM (inactive)
Cc1ccc(C(=O)Nc2ccc(S(=O)(=O)O)c3cc(S(=O)(=O)O)cc(S(=O)(=O)O)c23)cc1N |  |  |  |  |  | > 100 µM (inactive) |  | 
Cc1ccc(NC(=O)S(N)(c2ccc(C)cc2)[N+](=O)[O-])cc1 (stereo unspecified) |  |  |  |  | > 100 µM (inactive) | 38 µM (inactive) |  | 
